# Results as given in patent publication US20200131196A1 (Mount Tam Therapeutics, Inc., priority 2017, published 2020).
# Columns and labels:
# CRO-AP2 = experiment: OncoPanel cell proliferation assay, CRO-AP2; format: cell-based, human
# Description: (§1) Cells were grown in RPMI 1640, 10% FBS, 2 mM L-alanyl-L-glutamine, 1 mM Na pyruvate, or a special medium. Cells were seeded into 384-well plates and incubated in a humidified atmosphere of 5% CO2 at 37° C. Compounds were added the day following cell seeding. At the same time, a time zero untreated cell plate was generated. After a 3-day incubation period, cells were fixed and stained to allow fluorescence imaging of nuclei. Compounds (1 mM stock solutions) were serially diluted in half-log steps from the highest test concentration ([…]), and assayed over 10 concentrations with a maximum assay concentration of 0.1% DMSO. Automated fluorescence microscopy was carried out using a Molecular Devices ImageXpress Micro XL high-content imager, and images were collected with a 4× objective. 16-bit TIFF images were acquired and analyzed with MetaXpress 5.1.0.41 software.
# (§2) Cell proliferation was measured by the fluorescence intensity of an incorporated nuclear dye. The output is referred to as the relative cell count, where the measured nuclear intensity is transformed to percent of control (POC) using the following formula: […]
# (§3) Cellular response parameters were calculated using nonlinear regression to a sigmoidal single-site dose response model:
# (§4) EC50 is the test compound concentration at the curve inflection point or half the effective response (parameter C of the fitted curve solution). GI50 is the concentration needed to reduce the observed growth by half (midway between the curve maximum and the time zero value). “Cell Count Activity Area” is an estimate of the integrated area above the curve (Barretina, et al. The Cancer Cell Line Encyclopedia enables predictive modelling of anticancer drug sensitivity. Nature 483: 603-607). […] In rare instances, values <0 or >10 may be observed. […] Curve-fitting, calculations, and report generation was performed using a custom data reduction engine and MathIQ based software (AIM).
# MES-SA = experiment: OncoPanel cell proliferation assay, MES-SA; format: cell-based, human
# Description: as §1, §2, §3, §4
# NCI-H510A = experiment: OncoPanel cell proliferation assay, NCI-H510A; format: cell-based, human
# Description: as §1, §2, §3, §4
# RL95-2 = experiment: OncoPanel cell proliferation assay, RL95-2; format: cell-based, human
# Description: as §1, §2, §3, §4
# SNU-C2B = experiment: OncoPanel cell proliferation assay, SNU-C2B; format: cell-based, human
# Description: as §1, §2, §3, §4
# SNU-5 = experiment: OncoPanel cell proliferation assay, SNU-5; format: cell-based, human
# Description: as §1, with “Cells” for “Cells were grown in RPMI 1640, 10% FBS, 2 mM L-alanyl-L-glutamine, 1 mM Na pyruvate, or a special medium. Cells”
# as §2, §3
# (§5) GI50 is the concentration needed to reduce the observed growth by half (midway between the curve maximum and the time zero value). […] In rare instances, values <0 or >10 may be observed. […] Curve-fitting, calculations, and report generation was performed using a custom data reduction engine and MathIQ based software (AIM).
# SW579 = experiment: OncoPanel cell proliferation assay, SW579; format: cell-based, human
# Description: as §1, §2, §3, §4
# TF-1 = experiment: OncoPanel cell proliferation assay, TF-1; format: cell-based, human
# Description: as §1, §2, §3, §4
# U2OS = experiment: OncoPanel cell proliferation assay, U2OS; format: cell-based, human; conditions: Homo sapiens, read-out: Cell Count GI50
# Description: as §1, with “Cells” for “Cells were grown in RPMI 1640, 10% FBS, 2 mM L-alanyl-L-glutamine, 1 mM Na pyruvate, or a special medium. Cells”
# as §2, §3, §5
# U-87 MG = experiment: OncoPanel cell proliferation assay, U-87 MG; format: cell-based, human
# Description: as §1, §2, §3, §4
# RKOE6 = experiment: OncoPanel cell proliferation assay, RKOE6
# Description: (§6) Cells were seeded into 384-well plates and incubated in a humidified atmosphere of 5% CO2 at 37° C. Compounds were added the day following cell seeding. At the same time, a time zero untreated cell plate was generated. After a 3-day incubation period, cells were fixed and stained to allow fluorescence imaging of nuclei. Compounds (1 mM stock solutions) were serially diluted in half-log steps from the highest test concentration (1 micromol), and assayed over 10 concentrations with a maximum assay concentration of 0.1% DMSO. Automated fluorescence microscopy was carried out using a Molecular Devices ImageXpress Micro XL high-content imager, and images were collected with a 4× objective. 16-bit TIFF images were acquired and analyzed with MetaXpress 5.1.0.41 software.
# CAMA-1 = experiment: OncoPanel cell proliferation assay, CAMA-1
# Description: as §6
# [1] = Homo sapiens, read-out: Cell Count GI50
# [2] = Homo sapiens, read-out: Cell Count EC50
smiles,measurement,setting,value
"CN[C@@H]1C[C@H]2O[C@@](C)([C@@H]1OC)n1c3ccccc3c3c4c(c5c6ccccc6n2c5c31)C(=O)NC4 [Staurosporine, reference compound]",Cell Count Activity Area,CRO-AP2,3.99
same,GI50,CRO-AP2; [1],13.2 nM
same,Cell Count Activity Area,MES-SA,2.80
same,GI50,MES-SA; [1],13 nM
same,Cell Count Activity Area,NCI-H510A,1.68
same,EC50,NCI-H510A; [2],39.8 nM
same,GI50,NCI-H510A; [1],56.5 nM
same,Cell Count Activity Area,RL95-2,3.87
same,GI50,RL95-2; [1],6.83 nM
same,Cell Count Activity Area,SNU-C2B,3.80
same,EC50,SNU-C2B; [2],15.8 nM
same,GI50,SNU-C2B; [1],4.97 nM
same,Cell Count Activity Area,SNU-5,2.58
same,EC50,SNU-5; [2],6.44 nM
same,GI50,SNU-5; [1],10.3 nM
same,Cell Count Activity Area,SW579,6.09
same,EC50,SW579; [2],0.52 nM
same,GI50,SW579; [1],0.506 nM
same,Cell Count Activity Area,TF-1,3.31
same,GI50,TF-1; [1],10.9 nM
same,IC50,"TF-1; Homo sapiens, read-out: Cell Count IC50",11.9 nM
same,GI50,U2OS,2.63 nM
same,Cell Count Activity Area,U-87 MG,3.25
same,GI50,U-87 MG; [1],0.836 nM
same,EC50,"RKOE6; Homo sapiens, RKOE6, read-out: Cell Count EC50",16.8 nM
same,GI50,"RKOE6; Homo sapiens, RKOE6, read-out: Cell Count GI50",13.2 nM
same,IC50,"RKOE6; Homo sapiens, RKOE6, read-out: Cell Count IC50",17.9 nM
same,Cell Count Activity Area,RKOE6; RKOE6,3.96
same,Cell Count Activity Area,CAMA-1; CAMA-1,2.99
same,EC50,"CAMA-1; Homo sapiens, CAMA-1, read-out: Cell Count EC50",20.2 nM
same,GI50,"CAMA-1; Homo sapiens, CAMA-1, read-out: Cell Count GI50",12 nM
same,IC50,"CAMA-1; Homo sapiens, CAMA-1, read-out: Cell Count IC50",99 nM
